Patent US20070128217A1 (priority 2003, published 2007)

Legend:
[1] = tested on: control sera (pooled serum of ten healthy LUMC hospital workers; commercial negative donor pooled serum from the Dutch bloodbank); type: binding, human
[2] = tested on: rabbit serum obtained by immunizing a rabbit with the SARS-CoV strain Frankfurt 1; type: binding; set-up: Binding of a rabbit serum to linear peptides / Binding of a rabbit serum to looped peptides / Rabbit serum linear peptides / Rabbit serum looped peptides / Binding of a rabbit serum to linear peptides of protein N of SARS-CoV Urbani (Rabbit serum linear peptides) / Binding of a rabbit serum to looped/cyclic peptides of protein N of SARS-CoV Urbani (Rabbit serum looped peptides): unit not given here
[3] = tested on: antibodies in sera from SARS patients (sera 1a, 1b, 2, 6, 37, 62, London, SARS-yellow, SARS-green); type: binding, human

| Sequence | Binding of Control Serum Blood-Bank to Looped peptides [1] | Binding of Control serum Blood-bank to linear peptides [1] | Binding of Control serum LUMC to linear peptides [1] | Binding of Control serum LUMC to looped peptides [1] | Binding of a rabbit serum to linear peptides [2] | Binding of a rabbit serum to looped peptides [2] | Binding of serum 1a to linear peptides of protein E of SARS-CoV Urbani [3] | Binding of serum 1a to looped/cyclic peptides of protein E of SARS-CoV Urbani [3] | Binding of serum 1b to linear peptides of protein E of SARS-CoV Urbani [3] | Binding of serum 1b to looped/cyclic peptides of protein E of SARS-CoV Urbani [3] | Binding of serum 2 to linear peptides of protein E of SARS-CoV Urbani [3] | Binding of serum 2 to looped/cyclic peptides of protein E of SARS-CoV Urbani [3] | Binding of serum 6 to linear peptides of protein E of SARS-CoV Urbani [3] | Binding of serum 6 to looped/cyclic peptides of protein E of SARS-CoV Urbani [3] | Binding of serum 37 to linear peptides of protein E of SARS-CoV Urbani [3] | Binding of serum 37 to looped/cyclic peptides of protein E of SARS-CoV Urbani [3] | Binding of serum 62 to linear peptides of protein E of SARS-CoV Urbani [3] | Binding of serum 62 to looped/cyclic peptides of protein E of SARS-CoV Urbani [3] | Binding of serum London to linear peptides of protein E of SARS-CoV Urbani [3] | Binding of serum London to looped/cyclic peptides of protein E of SARS-CoV Urbani [3] | also measured |
| --- | --- | --- | --- | --- | --- | --- | --- | --- | --- | --- | --- | --- | --- | --- | --- | --- | --- | --- | --- | --- | --- |
| FVSEETGTLIVNSVL | 0.8 | 0.7 | 1.1 | 0.7 | 0.3 | 0.1 | 0.8 | 0.6 | 0.6 | 0.6 | 0.5 | 0.4 | 0.4 | 0.5 | 0.4 | 0.6 | 0.5 | 0.8 | 0.8 | 0.5 | Binding of serum SARS-green to linear peptides of protein E of SARS-CoV Urbani [3]: 0.6; Binding of serum SARS-green to looped/cyclic peptides of protein E of SARS-CoV Urbani [3]: 0.6; Binding of serum SARS-yellow to linear peptides of protein E of SARS-CoV Urbani [3]: 0.4; Binding of serum SARS-yellow to looped/cyclic peptides of protein E of SARS-CoV Urbani [3]: 0.8 |
| ILTALRLCAYCCNIV | 0.8 | 0.8 | 0.4 | 0.8 | 0.6 | 0.6 | 0.8 | 0.9 | 0.7 | 0.6 | 0.4 | 1.0 | 0.8 | 0.7 | 0.7 | 0.7 | 0.8 | 0.8 | 0.5 | 0.6 | Binding of serum SARS-green to linear peptides of protein E of SARS-CoV Urbani [3]: 0.5; Binding of serum SARS-green to looped/cyclic peptides of protein E of SARS-CoV Urbani [3]: 0.6; Binding of serum SARS-yellow to linear peptides of protein E of SARS-CoV Urbani [3]: 0.2; Binding of serum SARS-yellow to looped/cyclic peptides of protein E of SARS-CoV Urbani [3]: 0.6 |
| IVNSVLLFLAFVVFL | 0.5 | 0.6 | 0.4 | 0.7 | 0.5 | 0.5 | 0.8 | 0.6 | 0.6 | 0.4 | 0.4 | 0.5 | 0.7 | 0.3 | 0.7 | 0.6 | 0.6 | 0.6 | 0.4 | 0.3 | Binding of serum SARS-green to linear peptides of protein E of SARS-CoV Urbani [3]: 0.3; Binding of serum SARS-green to looped/cyclic peptides of protein E of SARS-CoV Urbani [3]: 0.2; Binding of serum SARS-yellow to linear peptides of protein E of SARS-CoV Urbani [3]: 0.2; Binding of serum SARS-yellow to looped/cyclic peptides of protein E of SARS-CoV Urbani [3]: 0.7 |
| LAFVVFLLVTLAILT | 0.8 | 0.6 | 0.5 | 0.6 | 0.5 | 0.2 | 0.8 | 0.5 | 0.5 | 0.5 | 0.5 | 0.5 | 0.7 | 0.5 | 0.7 | 0.6 | 0.7 | 0.6 | 0.6 | 0.5 | Binding of serum SARS-green to linear peptides of protein E of SARS-CoV Urbani [3]: 0.3; Binding of serum SARS-green to looped/cyclic peptides of protein E of SARS-CoV Urbani [3]: 0.5; Binding of serum SARS-yellow to linear peptides of protein E of SARS-CoV Urbani [3]: 0.1; Binding of serum SARS-yellow to looped/cyclic peptides of protein E of SARS-CoV Urbani [3]: 0.4 |
| LAILTALRLCAYCCN | 0.7 | 0.7 | 0.6 | 0.8 | 0.6 | 0.6 | 0.8 | 0.8 | 0.7 | 0.4 | 0.5 | 0.6 | 0.5 | 0.5 | 0.8 | 0.6 | 0.8 | 0.7 | 0.5 | 0.4 | Binding of serum SARS-green to linear peptides of protein E of SARS-CoV Urbani [3]: 0.5; Binding of serum SARS-green to looped/cyclic peptides of protein E of SARS-CoV Urbani [3]: 0.5; Binding of serum SARS-yellow to linear peptides of protein E of SARS-CoV Urbani [3]: 0.2; Binding of serum SARS-yellow to looped/cyclic peptides of protein E of SARS-CoV Urbani [3]: 0.8 |
